Measurements taken from PMC4232510, “Identification of Functionally Important Residues of the Rat P2X4 Receptor by Alanine Scanning Mutagenesis of the Dorsal Fin and Left Flipper Domains” (PLoS ONE, 2014).
Where two headings read alike, the source gives them in different places.

Tests used:
P2X2R N288A = tested on: P2X2R N288A; design: method as in PMID 10940304; conditions: cited from earlier work
P2X1R G288A = tested on: P2X1R G288A; design: key: n.f.: non-functional mutants; ↑: mutant with significant increased EC50 in comparison to WT (values represent fold increase); ≈: close to WT receptor; D: affected time-constant of the desensitizing current response; conditions: cited from earlier work
P2X1R N290A = tested on: P2X1R N290A; design: method as in PMID 16371009; conditions: cited from earlier work
P2X3R N279A = tested on: P2X3R N279A; design: method as in PMID 21098022; conditions: cited from earlier work
P2X3R S275A = tested on: P2X3R S275A; design: method as in PMID 21879712; key: n.f.: non-functional mutants; ↑: mutant with significant increased EC50 in comparison to WT (values represent fold increase); ≈: close to WT receptor; D: affected time-constant of the desensitizing current response; conditions: cited from earlier work
rP2X4R N204A mutant = target: T1, rP2X4R N204A mutant (Rattus norvegicus, UniProt P51577, N204A); format: cell-based
T1 construct: expressed in transfected cells; host or cells: HEK293T
Experimental: To express the recombinant channels, we used human embryonic kidney (HEK) 293T cells (American Type Culture Collection, Rockville, MD, USA) grown in Dulbecco modified Eagle’s medium (Thermo Fisher Scientific, Waltham, MA) supplemented with 10% fetal bovine serum (Sigma-Aldrich, St Louis, MO), 50 U/ml penicillin and 50 µg/ml streptomycin (both Thermo Fisher Scientific, Waltham, MA) in a humidified 5% CO2 and 95% air at 37°C. Cells were cultured in 75 cm^2 plastic culture flasks (NUNC, Rochester, NY) for 36–72 hours until reaching 80–95% confluence. Before the day of transfection, the cells were plated on 35 mm culture dishes (Sarstedt, Newton, NC) and incubated at 37°C for at least 24 h. […] Transfected cells were identified by the fluorescence signal of EGFP using the Olympus IX71 inverted research microscope with fluorescence illuminators (Model IX71; Olympus, Melville, NY). […]
ATP-induced currents were recorded from whole cells clamped to −60 mV using an Axopatch 200B patch-clamp amplifier (Axon Instruments, Union City, CA). […] Potency of ATP was measured based on the activation of naïve (not previously stimulated) receptors using a short (2–5 s) application of various concentrations of ATP. […] One or two responses were recorded from one cell, if not otherwise stated, and responses from different cells were pooled. […]

P2X1R P287C = tested on: P2X1R P287C; design: method as in PMID 17428985; key: n.f.: non-functional mutants; ↑: mutant with significant increased EC50 in comparison to WT (values represent fold increase); ≈: close to WT receptor; D: affected time-constant of the desensitizing current response; conditions: cited from earlier work
P2X4R L214A = conditions: cited from earlier work

T1 sequence (P51577 whole entry N204A): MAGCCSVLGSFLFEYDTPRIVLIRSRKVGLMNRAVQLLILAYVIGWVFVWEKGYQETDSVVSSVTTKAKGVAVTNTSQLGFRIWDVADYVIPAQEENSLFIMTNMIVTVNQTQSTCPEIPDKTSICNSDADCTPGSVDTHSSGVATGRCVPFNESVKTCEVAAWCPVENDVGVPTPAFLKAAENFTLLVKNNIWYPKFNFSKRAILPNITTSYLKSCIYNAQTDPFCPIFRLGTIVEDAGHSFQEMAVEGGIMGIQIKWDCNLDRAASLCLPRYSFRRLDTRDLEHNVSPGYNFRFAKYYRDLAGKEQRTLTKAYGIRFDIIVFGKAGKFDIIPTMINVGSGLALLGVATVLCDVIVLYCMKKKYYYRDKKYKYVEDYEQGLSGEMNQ

In the case of `Nc1ncnc2c1ncn2[C@@H]1O[C@H](COP(=O)(O)OP(=O)(O)OP(=O)(O)O)[C@@H](O)[C@H]1O` [ATP], the “fold increase of EC50 for ATP in comparison to WT” value (“fold increase of EC50 for ATP” below) (P2X2R N288A) is given as “N288A: ↑>100x[6]”, the “change in EC50 for ATP” value (P2X1R G288A) is given as “≈” and the “fold increase of EC50 for ATP” value (P2X1R N290A) is given as “N290A: ↑>50x[45]”. The “fold increase of EC50 for ATP” value (P2X3R N279A) was “N279A: ↑20x[4]”, the change in desensitization (P2X3R S275A) was “S275A: D[55]” and the “Imax+IVM” value (rP2X4R N204A mutant; ATP after 3 µM IVM 4-6 min) was 2.5 ± 0.4 nA. For the same molecule, the “τoff +IVM” value (rP2X4R N204A mutant; decay after removal of 1 or 3 µM ATP, 3 µM IVM) was 5.2 ± 0.6 s, the “change in EC50 for ATP” value (P2X1R P287C) was “P287C: ≈[9]” and the “fold increase of EC50 for ATP” value (P2X4R L214A; ref 41) was 8 x. The “fold increase of EC50 for ATP” value (P2X4R L214A; ref 49) was 3 x.
